{"source": "patent US20240342133A1", "about": "“TOPICAL STATIN FORMULATION FOR TREATMENT OF LICHEN SCLEROSUS AND PSORIASIS” (TBT PHARMA, INC, priority 2023, published 2024)", "key": {"[1]": {"system": "cortisol", "experiment": "Cortisol levels in primary human keratinocyte cultures and organotype wound healing models", "assay_type": "cell-based", "settings": "after treatment", "excerpt": "FIG. 4. Cortisol levels in organotype wound models after treatment with mevastatin. […] Without cholesterol, local cortisol production should drop because cholesterol is required for cortisol synthesis. This was confirmed in primary human keratinocyte cultures and organotype wound healing models after treatment with mevastatin."}, "[2]": {"system": "c-myc", "experiment": "c-myc expression in human skin ex-vivo (chronic wound) cultures and organotype wound models", "assay_type": "cell-based", "settings": "samples from chronic wounds, cultured, before and after treatment; relatively short time frame", "excerpt": "FIG. 3. C-myc expression in ex-vivo cultures before and after treatment with mevastatin. […] Samples are directly from chronic wounds, cultured, and measured c-myc levels before and after treatment with mevastatin. […] A large effect of high c-myc levels is that they cause abnormal differentiation and migration of keratinocytes."}, "[3]": {"system": "Primary human keratinocytes", "experiment": "Keratinocyte migration scratch test", "assay_type": "cell-based", "settings": "varying doses"}, "[4]": {"system": "chronic wounds", "experiment": "Full thickness diabetic porcine wound model", "assay_type": "in vivo", "settings": "for increase in wound vascularity (% vascularity): versus vehicle, day 10, PD31 stain", "procedure": "FIG. 6. Histology sections of optimal dose at day 10 show increased epithelialization and vascularization. FIG. 7. Percent vascularity at day 10 determined by PD31 stain. […] Mevastatin, simvastatin, and a combination were tested in a full thickness diabetic porcine model. FIG. 6 confirms that statins are an effective treatment of chronic wounds with a known mechanism of action. The compounds show increased epithelialization and vascularization."}, "[5]": {"system": "MRSA", "experiment": "MRSA load in ex-vivo wound cultures", "set-up": "species or system methicillin resistant staph aureus", "settings": "after 24 hours"}, "[6]": {"settings": "full thickness diabetic porcine model, day 10"}}}
{"smiles": "CC[C@H](C)C(=O)O[C@H]1CCC=C2C=C[C@H](C)[C@H](CC[C@@H]3C[C@@H](O)CC(=O)O3)[C@H]21", "note": "[mevastatin]", "values": [{"measurement": "local cortisol production", "setting": "[1]", "value": "drop"}, {"measurement": "c-myc levels", "setting": "[2]", "value": "drop drastically"}, {"measurement": "keratinocyte migration", "setting": "[3]", "value": "increasing migration levels with dose"}, {"measurement": "epithelialization", "setting": "[4]; [6]", "value": "increased"}, {"measurement": "vascularization", "setting": "[4]; [6]", "value": "increased"}, {"measurement": "increase in wound vascularity (% vascularity)", "setting": "[4]", "value": "~3", "unit": "fold"}, {"measurement": "MRSA load", "setting": "[5]", "value": "drastic reduction"}]}
{"smiles": "CCC(C)(C)C(=O)O[C@H]1C[C@@H](C)C=C2C=C[C@H](C)[C@H](CC[C@@H]3C[C@@H](O)CC(=O)O3)[C@H]21", "note": "[simvastatin]", "values": [{"measurement": "increase in wound vascularity (% vascularity)", "setting": "[4]", "value": "~3", "unit": "fold"}]}
